This passage reports IC50, inhibition and Km results from publication PMC12430364, “Characterization of Human Recombinant β1,4-GalNAc-Transferase B4GALNT1 and Inhibition by Selected Compounds” (Molecules, 2025).

Holding throughout (format): biochemical
The target of assay [1] is T1, β1,4-N-acetylgalactosaminyltransferase 1 (B4GALNT1, GM2 synthase) (Homo sapiens, UniProt Q00973).
T1 construct: soluble His8-tagged, amino acids 1–25 deleted
T1 sequence (Q00973 26-533): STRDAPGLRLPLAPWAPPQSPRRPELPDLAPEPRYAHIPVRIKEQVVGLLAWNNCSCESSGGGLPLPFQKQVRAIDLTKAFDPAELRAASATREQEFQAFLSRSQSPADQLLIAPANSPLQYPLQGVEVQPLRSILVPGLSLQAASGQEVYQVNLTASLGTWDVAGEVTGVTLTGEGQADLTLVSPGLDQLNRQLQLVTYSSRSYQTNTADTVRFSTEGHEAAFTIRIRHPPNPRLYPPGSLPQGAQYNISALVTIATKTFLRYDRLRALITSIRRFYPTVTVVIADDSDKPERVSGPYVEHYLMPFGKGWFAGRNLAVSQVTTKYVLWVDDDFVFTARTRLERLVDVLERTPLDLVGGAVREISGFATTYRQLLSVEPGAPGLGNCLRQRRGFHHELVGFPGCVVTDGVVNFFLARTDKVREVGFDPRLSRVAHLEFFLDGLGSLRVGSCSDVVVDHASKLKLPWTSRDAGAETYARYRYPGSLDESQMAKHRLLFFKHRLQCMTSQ
Briefly: radiolabeled UDP-[3H]GalNAc transfer to GM3, purified enzyme; […] inhibition at […] and IC50.

Assay [2] deals with T1, β1,4-N-acetylgalactosaminyltransferase 1 (B4GALNT1, GM2 synthase). The assay can be described thus: % inhibition at […], radiolabeled GalNAc transfer assay, purified enzyme.
Assay [3] has the same target. Briefly: radiolabeled GalNAc transfer assay, purified enzyme, apparent KM.

As to `CCCCCCCCCCC[n+]1ccn(CCCCCCn2cc[n+](CCCCCCCCCCC)c2)c1` [QT163], in assay [1], the IC50 came to 200 µM.
As for `CCCC(=O)N[C@@H]1[C@@H](O)[C@H](O)[C@@H](CO)O[C@H]1Sc1ccc2ccccc2c1` [compound 612, 2-naphthyl 2-butanamido-2-deoxy-1-thio-β-D-glucopyranoside], in assay [2], testing at 1000 µM gave an inhibition of 44%.
As to GM3, the Km in assay [3] was 500 µM.

As usually defined, the IC50 is the concentration needed to halve the response being measured. A high value points to weaker potency. Broadly, the inhibition is how much of the control response was suppressed. Read a low inhibition as a response near the control. A word on the Km: it is the substrate concentration at which the rate is half of its maximum.
